This note sets out measurements from patent publication US4320136A, “8-Aza-16,16-difluoroprostanoids” (E. I. Du Pont de Nemours and Company, priority 1980, dated 1982).

Structures are written as SMILES.

For assay [1], the system named is necrosis and inflammation of the stomach caused by ethanol. In words: protection of rat stomach from ethanol-caused necrosis and inflammation (cytoprotection, oral). Type of assay: in vivo, rat (fasted, male). Particulars: for inhibition in vivo at 2 mg/kg / ED50: Rattus norvegicus; for inhibition in vivo at 2 mg/kg: po, 1 h, read-out: Percent Protection 2 mg/kg, at 1 hr; for inhibition in vivo at 2 mg/kg / ED50 / Percent Protection 2 mg/kg, at 1 hr: oral; for inhibition in vivo at 2 mg/kg / Percent Protection 2 mg/kg, at 1 hr: 1 hr between compound and ethanol; for cytoprotective effect (in words): rat, in vivo; for ED50: 50% protection, at peak time; for Peak Time: interval between compound and ethanol at which greatest protection is observed. The method, then: Some differences in the cytoprotective properties of these optical isomers are indicated by data in Table I. Using a method similar to that of Robert [U.S. Pat. No. 4,097,603 (1978)], fasted, male rats were treated with 8-azaprostanoids orally and various times later they were treated orally with 1.0 ml of absolute ethanol. The rats were sacrificed after ethanol administration and the stomachs were removed, inspected, and rated. The ED50 values in Table I represent the doses of 8-aza-16,16-difluoroprostanoids that gave 50% protection from the necrosis and inflammation of the stomach caused by ethanol. Values for the natural prostaglandin E1 (PGE1) and for two known nonfluorinated 8-azaprostanoids are given for comparison.
*"1 hr" refers to the one hour interval between administration of compoun
and subsequent ethanol administration.
**"Peak Time" refers to that interval between administration of compound
and administration of ethanol at which greatest protection is observed.

Assay [2] concerns histamine-induced bronchoconstriction. Description: aerosol histamine challenge test (histamine-induced bronchoconstriction). Format: in vivo, guinea pig. The method, then:
As has been mentioned, compounds of this invention also show activity as potential drugs for controlling bronchial asthma. Using an aerosol histamine challenge test in guinea pigs [a modification of the method of M. E. Rosenthale et al, Experientia, 26, 119 (1970)], the ability of 8-aza-16,16-difluoroprostanoids administered by i.p. injection to protect against histamine-induced bronchoconstriction was measured. Using injections of 0.5 mg/kg and evaluating the guinea pigs 60 minutes after the injections, compound 6 gave 40% protection, compound 6l (15 RS) gave 39% protection, and compound 6d(15 RS) gave 14% protection. An oral dose of compound 8 at 5 mg/kg gave 80% protection at 2 hours.

The next assay relates to PGE1. Description: PGE1 antagonist test on isolated rat stomach strips. The source says:
These PGE1 antagonist tests were run on isolated rat stomach strips.

Setting [3] is: i.p. 0.5 mg/kg, 60 minutes after injection, 0.5 mg/kg.

As for `CCCCCCC(F)(F)C(O)/C=C/C1CCC(=O)N1CCCCCCC(=O)OC(C)(C)C` (racemic) [Compound 6, racemic tert-Butyl 7-[2-Oxo-5(RS)-5-(4,4-difluoro-3(RS)-3-hydroxy-1n-dec-1(E)-enyl)-1-pyrrolidinyl]-heptanoate], in assay [1], the inhibition in vivo at 2 mg/kg was 32% and the “cytoprotective effect (in words)” value is reported as “some cytoprotective activity”. Further, the “protection against histamine-induced bronchoconstriction” value in assay [2] (i.p. 0.5 mg/kg, 60 minutes after injection) is recorded as 40%. In the assay on PGE1, the “PGE1 antagonism (in words)” value is recorded as “weaker PGE1 antagonist”.

Turning to `CCCCCCC(F)(F)C(O)/C=C/C1CCC(=O)N1CCCCCCC(=O)O` (racemic) [Compound 7, racemic 7-[2-Oxo-5(RS)-(4,4-difluoro-3(RS)-hydroxy-1-n-dec-1(E)-enyl)-1-pyrrolidinyl]heptanoic Acid], in assay [1], the inhibition in vivo at 2 mg/kg came out at 91%, the 50% effective dose (ED50) was determined as 0.0035 mg/kg and the “Peak Time” value stood at 15 min.

Consider `CCCCCCC(F)(F)C(O)/C=C/C1CCC(=O)N1CCCCCCC(=O)OC` (racemic) [Compound 8, racemic Methyl 7-[2-Oxo-5(RS)-5-(4,4-difluoro-3(RS)-3-hydroxy-1-n-dec-1-(E)-enyl)-1-pyrrolidinyl]heptanoate], for which, in assay [1], the inhibition in vivo at 2 mg/kg amounted to 91%, the ED50 came out at 0.005 mg/kg and the “Peak Time” value was 15 min. In addition, in assay [2] (oral 5 mg/kg, at 2 hours), the “protection against histamine-induced bronchoconstriction” value turned out to be 80%.

In the case of `CCCCC(F)(F)C(O)/C=C/C1CCC(=O)N1CCCCCCC(=O)OC(C)(C)C` (racemic) [Compound 13, racemic t-Butyl 7-[2-Oxo-5(RS)-5-(4,4-difluoro-3(RS)-3-hydroxy-1-n-oct-1(E)-enyl)-1-pyrrolidinyl]heptanoate], in assay [1], the inhibition in vivo at 2 mg/kg amounted to 66%, the ED50 was found to be 0.8 mg/kg and the “Peak Time” value is 15 min.

Take `CCCCC(F)(F)C(O)/C=C/C1CCC(=O)N1CCCCCCC(=O)O` (racemic) [Compound 14, racemic 7-[2-Oxo-5(RS)-5-(4,4-difluoro-3(RS)-3-hydroxyl-1-n-oct-1(E)-enyl)-1-pyrrolidinyl]heptanoic Acid]: in assay [1], the ED50 is 0.22 mg/kg and the “Peak Time” value came to 60 min.

With `CC(C)(C)OC(=O)CCCCCCN1C(=O)CCC1/C=C/C(O)C(F)(F)c1ccccc1` (racemic) [Compound 21, racemic tert-Butyl 7-[2-Oxo-5(RS)-5-(4,4-difluoro-3(RS)-hydroxy-4-phenyl-1n-but-1(E)-enyl)-1-pyrrolidinyl]heptanoate], the inhibition in vivo at 2 mg/kg in assay [1] was found to be 68%.

As for `O=C(O)CCCCCCN1C(=O)CCC1/C=C/C(O)C(F)(F)c1ccccc1` (racemic) [Compound 22], the inhibition in vivo at 2 mg/kg in assay [1] was 82%.

Take `CCCCCCC(F)(F)C(O)C=CC1CCC(=O)N1CCCCCCC(=O)OC(C)(C)C` (single isomer, unassigned) [6d (15RS), tert-Butyl 7-[2-Oxo-5(R or S)5(4,4-difluoro-3-hydroxy-1n-dec-1(E)-enyl)-1-pyrrolidinyl]heptanoate]: in assay [1], the “Percent Protection 2 mg/kg, at 1 hr” value was -5% and the “cytoprotective effect (in words)” value is on record as “no (or a negative) cytoprotective effect”. In addition, in assay [2] (setting [3]), the “protection against histamine-induced bronchoconstriction” value is 14%. Further, the “IC50 against PGE1” value with PGE1 lay within 3 to 5 µg/mL.

As to `CCCCCCC(F)(F)[C@H](O)/C=C/[C@H]1CCC(=O)N1CCCCCCC(=O)OC(C)(C)C` (single isomer, unassigned) [6l (15R), tert-Butyl 7-[2-Oxo-5(R or S)-5-(4,4-difluoro-3(R or S)-3hydroxy-1-n-dec-1(E)-enyl)-1-pyrrolidinyl]heptanoate], the inhibition in vivo at 2 mg/kg in assay [1] was determined as 59%.

As to `CCCCCCC(F)(F)C(O)C=CC1CCC(=O)N1CCCCCCC(=O)OC(C)(C)C` (single isomer, unassigned) [6l (15RS), tert-Butyl 7-[2-Oxo-5(R or S)5(4,4-difluoro-3-hydroxy-1n-dec-1(E)-enyl)-1-pyrrolidinyl]heptanoate], the “Percent Protection 2 mg/kg, at 1 hr” value in assay [1] was found to be 59%. Also, the “protection against histamine-induced bronchoconstriction” value in assay [2] (setting [3]) is listed as 39%.

On to `CCCCCCC(F)(F)[C@@H](O)/C=C/[C@H]1CCC(=O)N1CCCCCCC(=O)OC(C)(C)C` (single isomer, unassigned) [6l (15S), tert-Butyl 7-[2-Oxo-5(R or S)-5-(4,4-difluoro-3(R or S)-3hydroxy-1-n-dec-1(E)-enyl)-1-pyrrolidinyl]heptanoate], for which the inhibition in vivo at 2 mg/kg in assay [1] was determined as 9%.

As for `CCCCCCC(F)(F)[C@@H](O)/C=C/[C@H]1CCC(=O)N1CCCCCCC(=O)O` (single isomer, unassigned) [7l (15S), 7-[2-Oxo-5(R or S)-5-(4,4-difluoro-3(R or S)-3-hydroxy-1n-dec-1(E)-enyl)-1-pyrrolidinyl]heptanoic Acid], it took a dose of 0.01 mg/kg to reach the 50% effect level in assay [1] (ED50).

Turning to `CCCCCC(O)C=CC1CCC(=O)N1CCCCCCC(=O)O` (stereo not shown) [7-[2-oxo-5-(3-hydroxy-1-oct-1-enyl)-1-pyrrolidinyl]heptanoic acids, reference compound], in assay [1], the inhibition in vivo at 2 mg/kg worked out at 40%, the median effective dose (ED50) was 3 mg/kg and the “Peak Time” value is 60 min.

As for `CCCCCCC(F)(F)[C@H](O)/C=C/[C@H]1CCC(=O)N1CCCCCCC(=O)O` [7l (15R), 7-[2-oxo-5(R)-5-(4,4-difluoro-3(R)-3-hydroxy-1n-dec-1(E)-enyl)-1-pyrrolidinyl]heptanoic acid], in assay [1], the 50% effect level (ED50) was put at a dose of 0.0007 mg/kg and the “Peak Time” value worked out at 15 min.

For `CCCCC(F)(F)C(O)/C=C/C1CCC(=O)N1CCCCCCC(=O)OC` (stereo not shown) [Compound 15], in assay [1], the inhibition in vivo at 2 mg/kg worked out at 88%, it took a dose of 0.025 mg/kg to reach the 50% effect level (ED50) and the “Peak Time” value is 15 min.

Turning to `CCCCC[C@H](O)/C=C/[C@H]1[C@H](O)CC(=O)[C@@H]1CCCCCCC(=O)O` [PGE1, prostaglandin E1, reference compound], in assay [1], the 50% effect level (ED50) was put at a dose of 0.011 mg/kg and the “Peak Time” value is 5 min.

Turning to `CCCCCC(O)C=CC1CCC(=O)N1CCCCCCC(=O)OC` (stereo not shown) [methyl 7-[2-oxo-5-(3-hydroxy-1-oct-1-enyl)-1-pyrrolidinyl]heptanoate, reference compound], in assay [1], the inhibition in vivo at 2 mg/kg was determined as 60%, it took a dose of 1.8 mg/kg to reach the 50% effect level (ED50) and the “Peak Time” value stood at 60 min.

The term ED50 denotes the midpoint of the dose-response relation. Read a high ED50 as weaker potency.
